From PubChem BioAssay AID826 (PCMD, 2007) come the findings set out here.

The structures appear in SMILES notation. Activity calls are given as the source filed them. The rule behind the calls is not given here. Where a SMILES comes first, the peptide text is derived from it. The star is where a group is joined. Boc = CC(C)(C)OC(=O)*

This assay addresses DNA-directed RNA polymerase subunit beta (Escherichia coli (strain K12)) (UniProt P0A8V2). The assay is described as follows: E. coli RNAP inhibitors, dose response, biochemical, confirmation (AID 826). The settings on record: E. coli RNA polymerase biochemical transcription assay.

Sequence of DNA-directed RNA polymerase subunit beta (Escherichia coli (strain K12)) (P0A8V2 whole entry, looked up): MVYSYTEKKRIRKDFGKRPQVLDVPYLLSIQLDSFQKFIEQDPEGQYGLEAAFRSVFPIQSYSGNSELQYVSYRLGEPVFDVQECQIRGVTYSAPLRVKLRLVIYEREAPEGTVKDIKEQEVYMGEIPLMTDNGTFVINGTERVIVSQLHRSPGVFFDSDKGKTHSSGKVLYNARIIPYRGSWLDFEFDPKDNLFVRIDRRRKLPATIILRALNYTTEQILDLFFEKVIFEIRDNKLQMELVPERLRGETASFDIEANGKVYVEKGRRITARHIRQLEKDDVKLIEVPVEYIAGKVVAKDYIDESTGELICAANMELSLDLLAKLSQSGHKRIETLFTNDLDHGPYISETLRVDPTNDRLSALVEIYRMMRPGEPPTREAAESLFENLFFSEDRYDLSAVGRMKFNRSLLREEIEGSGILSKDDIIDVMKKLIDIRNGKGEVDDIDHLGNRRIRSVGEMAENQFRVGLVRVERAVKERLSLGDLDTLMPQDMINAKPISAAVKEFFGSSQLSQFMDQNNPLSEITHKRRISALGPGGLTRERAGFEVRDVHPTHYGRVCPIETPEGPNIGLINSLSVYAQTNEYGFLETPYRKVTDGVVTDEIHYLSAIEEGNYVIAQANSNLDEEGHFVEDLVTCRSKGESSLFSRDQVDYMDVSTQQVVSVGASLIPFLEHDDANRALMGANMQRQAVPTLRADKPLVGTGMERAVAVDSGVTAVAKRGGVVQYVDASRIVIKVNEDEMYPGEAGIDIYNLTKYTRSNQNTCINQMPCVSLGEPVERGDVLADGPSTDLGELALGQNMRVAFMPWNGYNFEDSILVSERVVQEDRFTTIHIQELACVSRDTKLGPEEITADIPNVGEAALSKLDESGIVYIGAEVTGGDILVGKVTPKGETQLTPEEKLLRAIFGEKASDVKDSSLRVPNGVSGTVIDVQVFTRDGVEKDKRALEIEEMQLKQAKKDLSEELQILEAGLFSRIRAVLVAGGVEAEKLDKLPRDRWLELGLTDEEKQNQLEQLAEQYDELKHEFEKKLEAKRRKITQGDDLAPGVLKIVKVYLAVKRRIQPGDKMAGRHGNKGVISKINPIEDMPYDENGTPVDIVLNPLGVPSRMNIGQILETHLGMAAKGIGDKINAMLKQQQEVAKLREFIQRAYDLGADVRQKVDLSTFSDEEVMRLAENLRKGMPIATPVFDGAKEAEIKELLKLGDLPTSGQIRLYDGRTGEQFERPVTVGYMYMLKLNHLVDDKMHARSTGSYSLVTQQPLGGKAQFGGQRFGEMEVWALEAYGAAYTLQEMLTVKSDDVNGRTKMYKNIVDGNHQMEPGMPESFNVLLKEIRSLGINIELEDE

Regarding `O=C1N(O)C2(C=CCCC2)/C(=N\O)C12CCCCC2` (configuration not stated), the IC50 was > 50 µM (inactive).

Consider `COCCN1C(=O)C(O)=C(C(C)=O)C1c1ccc(OC)c(OC)c1` (configuration not stated), for which the IC50 was > 50 µM (inactive).

In the case of `COc1ccc(C2=NO[C@@H]3C(=O)N(c4c(C)cccc4C)C(=O)[C@H]23)cc1OC`, the IC50 is > 50 µM (inactive).

Regarding `CCOC(=O)C1=C(c2ccccc2)OC(N)=C(C#N)C1C(C)C` (configuration not stated), the IC50 is > 50 µM (inactive).

For the compound `CCCCn1c(O)c(C(CC)=NCCCN(C)C)c(=O)[nH]c1=O`, the IC50 was > 50 µM (inactive).

On to `CC(C)(C)OC(=O)N1CCCC1C(=O)N1CCCC1C(=O)N1CCCC1C(=O)O` (stereo not drawn) (Boc-Pro-Pro-Pro-OH; configuration not given here), for which the IC50 is > 50 µM (inactive).

Turning to `CC(=O)C1=C(C)Nc2cc(C(F)(F)F)ccc2S1`, the IC50 is > 50 µM (inactive).

In general, IC50 refers to the concentration at which inhibition is half-maximal.
